Data from the NIST ThermoML archive (doi:10.1016/j.jct.2016.09.040).

Assay: mn = molality of the nth substance listed, in mol/kg
Details: 75 kPa, Liquid; for viscosity: Capillary tube (Ostwald / Ubbelohde) method; for speed of sound: Frequency=3 MHz, Sing-around technique in a fixed-path interferometer; for mass density: Vibrating tube method

CCC(N)C(=O)O (stereo not drawn) [(.+-.)-α-aminobutyric acid] + O
Details	mass density [kg/m3]	speed of sound [m/s]	viscosity [mPa·s]
293.15 K, m1 = 0.09999	1001.01	1490.7	1.042
293.15 K, m1 = 0.2999	1006.4	1506.8	1.109
293.15 K, m1 = 0.4999	1011.57	1522.6	1.181
293.15 K, m1 = 0.7	1016.56	1538.5	1.266
293.15 K, m1 = 0.9001	1021.37	1554.2	1.358
293.15 K, m1 = 1	1023.7	1561.8	1.416
298.15 K, m1 = 0.09999	999.805	1504.7	0.905
298.15 K, m1 = 0.2999	1005.12	1519.9	0.97
298.15 K, m1 = 0.4999	1010.25	1535.1	1.057
298.15 K, m1 = 0.7	1015.2	1550	1.121
298.15 K, m1 = 0.9001	1019.98	1565.1	1.199
298.15 K, m1 = 1	1022.3	1572.4	1.243
303.15 K, m1 = 0.09999	998.37	1516.8	0.813
303.15 K, m1 = 0.2999	1003.66	1531.3	0.869
303.15 K, m1 = 0.4999	1008.75	1545.8	0.93
303.15 K, m1 = 0.7	1013.66	1560	0.997
303.15 K, m1 = 0.9001	1018.4	1574.5	1.061
303.15 K, m1 = 1	1020.7	1581.7	1.097
308.15 K, m1 = 0.09999	996.759	1526.9	0.731
308.15 K, m1 = 0.2999	1002	1540.8	0.781
308.15 K, m1 = 0.4999	1007.05	1554.7	0.834
308.15 K, m1 = 0.7	1011.92	1568.6	0.891
308.15 K, m1 = 0.9001	1016.62	1582.5	0.949
308.15 K, m1 = 1	1018.9	1589.5	0.979
313.15 K, m1 = 0.09999	994.9	1535.7	0.661
313.15 K, m1 = 0.2999	999.99	1548.7	0.706
313.15 K, m1 = 0.4999	1004.83	1561.8	0.754
313.15 K, m1 = 0.7	1009.41	1574.7	0.804
313.15 K, m1 = 0.9001	1013.72	1588	0.853
313.15 K, m1 = 1	1015.78	1595.1	0.895
